Patent US9765039B2, “Biaryl derivatives as bromodomain inhibitors” (Zenith Epigenetics Ltd., priority 2012, dated 2017)

Assays:
Brd4 bromodomain 1 = molecular target: T1, Brd4 bromodomain 1 (Homo sapiens, UniProt O60885); assay: Inhibition of tetra-acetylated histone H4 binding to BET bromodomains (TR-FRET); set-up: key: Active: Compounds with an IC50 value less than 30 μM were deemed to be active.; Not Active: Compounds with an IC50 value less than 30 μM were deemed to be active; settings: first bromodomain of Brd4, tetra-acetylated histone H4 peptide
T1 construct: made in house; host or cells: E. coli BL21(DE3)
Method in brief: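 TR-FRET with N-terminally His-tagged bromodomains (200 nM, E. coli-expressed, Ni affinity and SEC-purified) and biotinylated tetra-acetylated histone H4 peptide (25–50 nM), detected with Eu-cryptate streptavidin and XL665 anti-His antibody. Buffer 30 mM HEPES pH 7.4, 320 mM KF, 0.08% BSA, 0.2% DMSO; 2 h RT. IC50 from decrease in 665/620 nm ratio.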

c-myc = assay: Inhibition of c-myc expression in cancer cell lines (mRNA, real-time PCR); format: cell-based; set-up: key: Active: Compounds with an IC50 value less than 30 μM were deemed to be active; settings: Human AML MV4-11 cells, 3 hours
Method in brief: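 MV4-11 cells (2.5×10^4) exposed to compound or 0.1% DMSO for 3 h at 37° C, then lysed for mRNA isolation. c-myc and cyclophilin cDNAs co-amplified by duplex RT real-time PCR. IC50 from dose-response curve.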

Human AML MV-4-11 cells = assay: Inhibition of cell proliferation in cancer cell lines (CellTiter Aqueous One); format: cell-based; set-up: key: Active: Compounds with an IC50 value less than 30 μM were deemed to be active.; Not Active: Compounds with an IC50 value less than 30 μM were deemed to be active; settings: 72 hours
Method in brief: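 Exponentially growing MV-4-11 cells were treated immediately with two-fold compound dilutions from 30 µM to 0.2 µM in triplicate for 72 h at 37 °C. Viability was read by MTS (CellTiter Aqueous One) absorbance at 490 nm after 3-4 h; % proliferation vs DMSO gave IC50.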

hIL-6 mRNA = assay: Inhibition of hIL-6 mRNA transcription in LPS-stimulated U937 macrophages; format: cell-based, human; set-up: key: Active: Compounds with an IC50 value less than 30 μM are deemed to be active; settings: U937 differentiated into macrophages, 1 h pretreatment, lipopolysaccharide 3 h
Method in brief: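 U937 cells differentiated 3 days with 60 ng/mL PMA, pretreated 1 h with compound, then stimulated with […] E. coli LPS for 3 h at 37° C. hIL-6 mRNA quantified by one-step real-time RT-PCR, Ct normalised to internal control and expressed as fold induction relative to control.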

hApoA-1 mRNA = assay: Up-regulation of hApoA-1 mRNA transcription in Huh7 cells; format: cell-based, human; set-up: key: Active: Compounds with an EC170 value less than 30 μM are deemed to be active.; Not Active: Compounds with an EC170 value less than 30 μM are deemed to be active; settings: 48 hrs treatment, ApoA-I mRNA
Description: In this example, ApoA-I mRNA in tissue culture cells was quantitated to measure the transcriptional up-regulation of ApoA-I when treated with a compound of the present disclosure.
Huh7 cells ([…] per well) were plated in a 96-well plate using 100 μL DMEM per well, (Gibco DMEM supplemented with penicillin/streptomycin and 10% FBS), 24 h before the addition of the compound of interest. After 48 hrs treatment, the spent media was removed from the Huh-7 cells and placed on ice (for immediate use) or at −80° C. (for future use) with the “LDH cytotoxicity assay Kit II” from Abcam. The cells remaining in the plate were rinsed with 100 μL PBS.
Then 85 μL of cell lysis solution was added to each well and incubated for 5-10 minutes at room temperature, to allow for complete cell lysis and detachment. mRNA was then prepared using the “mRNA Catcher PLUS plate” from Life Technologies, according to the protocol supplied. After the last wash, as much wash buffer as possible was aspirated without allowing the wells to dry. Elution Buffer (E3, 80 μL) was then added to each well. mRNA was then eluted by incubating the mRNA Catcher PLUS plate with Elution Buffer for 5 minutes at 68° C., and then 1 minute at 4° C. Catcher plates with mRNA eluted were kept on ice for use or stored at −80° C.
The eluted mRNA isolated was then used in a one-step real-time PCR reaction, using components of the Ultra Sense Kit together with Life Technologies primer-probe mixes. Real-time PCR data was analyzed, using the Ct values, to determine the fold induction of each unknown sample, relative to the control (that is, relative to the control for each independent DMSO concentration).
Compounds with an EC170 value less than 30 μM are deemed to be active.

Row | Structure (SMILES) | FRET activity (IC50 < 30 μM) (Brd4 bromodomain 1) | c-myc activity (IC50 < 30 μM) (c-myc) | cell proliferation activity (IC50 < 30 μM) (Human AML MV-4-11 cells) | IL-6 activity (IC50 < 30 μM) (hIL-6 mRNA) | ApoA-1 Activity (EC170 < 30 μM) (hApoA-1 mRNA) | melting point
1 | COc1cc(OC)c2c(=O)[nH]c(-c3ccc(OCCO)c(-c4ccc(C(=O)N(C)C)cc4C)n3)nc2c1 [Example 3, 4-(6-(5,7-Dimethoxy-4-oxo-3,4-dihydroquinazolin-2-yl)-3-(2-hydroxyethoxy)pyridin-2-yl)-N,N,3-trimethylbenzamide] | Active | Not Active | Not Active | Active | Active | 
2 | COc1cc(OC)c2c(=O)[nH]c(-c3ccc(OCCNC(C)C)c(-c4ccc(C(=O)N(C)C)cc4C)n3)nc2c1 [Example 4, 4-(6-(5,7-dimethoxy-4-oxo-3,4-dihydroquinazolin-2-yl)-3-(2-(isopropylamino)ethoxy)pyridin-2-yl)-N,N,3-trimethylbenzamide] | Active | Active | Active | Active | Active | 
3 | COc1cc(OC)c2c(=O)[nH]c(-c3ccc(OCCO)c(-c4ccc(C(=O)N(C)C)cc4Cl)n3)nc2c1 [Example 5, 3-Chloro-4-(6-(5,7-dimethoxy-4-oxo-3,4-dihydroquinazolin-2-yl)-3-(2-hydroxyethoxy)pyridin-2-yl)-N,N-dimethylbenzamide] | Active | Active | Active | Active | Active | 
4 | COc1cc(OC)c2c(=O)[nH]c(-c3ccc(OCCNC(C)C)c(-c4ccc(C(=O)N(C)C)cc4Cl)n3)nc2c1 [Example 6, 3-Chloro-4-(6-(5,7-dimethoxy-4-oxo-3,4-dihydroquinazolin-2-yl)-3-(2-(isopropylamino)ethoxy)pyridin-2-yl)-N,N-dimethylbenzamide] | Active | Active | Active | Active | Active | 
5 | COc1cc(F)cc2nc(-c3ccc(OC4CN(C)C4)c(-c4ccc([S+](C)[O-])cc4)c3)[nH]c(=O)c12 (stereo not drawn) [Example 15, 7-Fluoro-5-methoxy-2-(6-((1-methylazetidin-3-yl)oxy)-4′-(methylsulfinyl)-[1,1′-biphenyl]-3-yl)quinazolin-4(3H)-one] | Active | Active | Not Active | Active | Active | 
6 | COc1cc(OC)c2c(=O)[nH]c(-c3ccc(OCCNC(C)C)c(-c4ccc([S+](C)[O-])cc4)c3)nc2c1 (stereo not drawn) [Example 17, 2-(6-(2-(Isopropylamino)ethoxy)-4′-(methylsulfinyl)biphenyl-3-yl)-5,7-dimethoxyquinazolin-4(3H)-one] | Active | Active | Active | Active | Active | 
7 | COc1cc(OC)c2c(=O)[nH]c(-c3ccc(OC4CNC4)c(-c4ccc(C#N)cc4)c3)nc2c1 [Example 18, 2′-(Azetidin-3-yloxy)-5′-(5,7-dimethoxy-4-oxo-3,4-dihydroquinazolin-2-yl)-[1,1′-biphenyl]-4-carbonitrile] | Active | Active | Not Active | Active | Active | 
8 | COc1cc(OC)c2c(=O)[nH]c(-c3ccc(OC4CN(C)C4)c(-c4ccc(C#N)cc4)c3)nc2c1 [Example 19, 5′-(5,7-Dimethoxy-4-oxo-3,4-dihydroquinazolin-2-yl)-2′-((1-methylazetidin-3-yl)oxy)-[1,1′-biphenyl]-4-carbonitrile] | Active | Active | Not Active | Active | Active | 
9 | COc1cc(OC)c2c(=O)[nH]c(-c3ccc(OC)c(-c4ccc(S(C)(=O)=O)cc4)n3)nc2c1 [Example 58, 5,7-Dimethoxy-2-(5-methoxy-6-(4-(methylsulfonyl)phenyl)pyridin-2-yl)quinazolin-4(3H)-one] | Active | Not Active | Not Active | Active |  | 279 to 281 °C
10 | COc1ccc2c(=O)[nH]c(-c3ccc(OCCO)c(-c4ccc([S+](C)[O-])cc4)n3)nc2c1 (stereo not drawn) [Example 60, 2-(5-(2-Hydroxyethoxy)-6-(4-(methylsulfinyl)phenyl)pyridin-2-yl)-7-methoxyquinazolin-4(3H)-one] | Active | Not Active | Not Active | Not Active |  | 266 to 267 °C
11 | COc1cc(OC)c2c(=O)[nH]c(-c3ccc(OCC[N+]4([O-])CCCC4)c(-c4ccc(S(C)(=O)=O)cc4)n3)nc2c1 [Example 63, 1-(2-((6-(5,7-Dimethoxy-4-oxo-3,4-dihydroquinazolin-2-yl)-2-(4-(methylsulfonyl)phenyl)pyridin-3-yl)oxy)ethyl)pyrrolidine 1-oxide] | Active | Not Active | Not Active | Active |  | 167 to 170 °C
12 | COc1cccc2nc(-c3ccc(OCCNC(C)C)c(-c4ccc(S(C)(=O)=O)cc4)n3)[nH]c(=O)c12 [Example 64, 2-(5-(2-(Isopropylamino)ethoxy)-6-(4-(methylsulfonyl)phenyl)pyridin-2-yl)-5-methoxyquinazolin-4(3H)-one] | Active | Active | Active | Active |  | 222 to 223 °C
